# Laboratory results published in US20120157401A1, “METHODS FOR TREATING NEUROFIBROMATOSIS” (PTC Therapeutics, Inc., priority 2009, published 2012).
# Key:
# [1] = test system: normal human keratinocyte; assay: ATP viability assay in keratinocytes; assay type: cell-based; conditions: any concentration tested
# Protocol: Experimental Design. Nontransformed normal human keratinocyte cell cultures were established under normoxic conditions (21% oxygen). […] At the completion of treatment, cells were assessed for viability with an ATP assay and conditioned media were evaluated for VEGF protein levels by ELISA (as described in Section 9.1.1.1).
# [2] = test system: tumor vessels (CD31 endothelial cells); assay: Intratumoral microvessel density, anti-murine CD31 immunostain, HT1080 xenografts; assay type: in vivo, athymic nude mice; conditions: racemic mixture, 5 mg/kg of Compound #10 oral BID, 10 days
# Protocol: Experimental Design. HT1080 cells (5×10^6 cells/mouse) were implanted subcutaneously in male athymic nude mice.
# At the end of treatment, the mice were sacrificed. Excised tumors were assayed by ELISA for VEGF content as described in Section 9.1.1.1, and were sectioned and immunostained with an anti murine CD31 antibody that is specific for endothelial cells.
# [3] = test system: SKNEP orthotopic xenografts; assay: Orthotopic SKNEP Ewing sarcoma tumor model (kidney capsule): tumor weight; assay type: in vivo, athymic nude mice; conditions: 5 weeks of treatment
# Source text: Experimental Design. In orthotopic tumor models, human tumor cells are implanted into the mouse in an organ that corresponds to the location from which the tumors arise. Such models may provide a better predictor of clinical efficacy than injection of tumors into the flanks of nude mice. See Hoffman, Invest. New Drugs 1999, 17(4):343-59. SY5Y neuroblastoma or SKNEP Ewing sarcoma tumor cells (1×10^6 cells/mouse) were implanted into the kidney capsule of female athymic nude mice according to published methods. See Huang et al., Proc. Natl. Acad. Sci. USA 2003, 100(13):7785-90. One week after implantation of each type of tumor, mice were divided into 2 groups and were administered a test Compound as shown in Table 21.
# After 5 weeks of treatment, the mice were sacrificed, and the weights of the tumors were assessed.
# [4] = test system: HT1080 cells; assay: Reversibility of cell cycle delay after washout in HT1080 cells; assay type: cell-based, human; conditions: HT1080, 100 nM for 14 hours, then washout
# [5] = test system: HT1080 cells; assay: Anchorage-independent colony formation in HT1080 cells; assay type: cell-based, human; conditions: 10 and 50 nM, day 18; P=0.29 and 0.07
# Protocol: Experimental Design. HT1080 cells growing in monolayer were trypsinized, counted and suspended in a 0.35% agar noble/1× complete DMEM solution at 37° C. at a concentration of 2,500 cells/mL. One ml of this solution was layered over a semisolid base consisting of 0.5 mL of 0.75% agar noble/1× complete DMEM in a six well tissue culture plate. […] Tissue culture plates were then returned to the incubator and colonies were allowed to form. […] On day 18 the vehicle-treated wells had colonies of sufficient size to count (>50 cells/colony). At this time, for increased visualization, 1.5 mL of a 2× working volume of (3-(4,5-Dimethylthiazol-2-yl)-2,5-diphenyltetrazolium bromide, a tetrazole) (MTT, Invitrogen, Cat #C35007) was added and the plates were returned to the incubator for 2 hours until colonies were stained by conversion of the MTT to purple formazan crystals. Colonies were then visually counted under a dissecting microscope.
# [6] = target: human-ether-a-go-go-related gene (hERG) current (Homo sapiens, UniProt Q12809); assay: Higher throughput hERG assay; assay type: cell-based
# Sequence of human-ether-a-go-go-related gene (hERG) current (Q12809 whole entry): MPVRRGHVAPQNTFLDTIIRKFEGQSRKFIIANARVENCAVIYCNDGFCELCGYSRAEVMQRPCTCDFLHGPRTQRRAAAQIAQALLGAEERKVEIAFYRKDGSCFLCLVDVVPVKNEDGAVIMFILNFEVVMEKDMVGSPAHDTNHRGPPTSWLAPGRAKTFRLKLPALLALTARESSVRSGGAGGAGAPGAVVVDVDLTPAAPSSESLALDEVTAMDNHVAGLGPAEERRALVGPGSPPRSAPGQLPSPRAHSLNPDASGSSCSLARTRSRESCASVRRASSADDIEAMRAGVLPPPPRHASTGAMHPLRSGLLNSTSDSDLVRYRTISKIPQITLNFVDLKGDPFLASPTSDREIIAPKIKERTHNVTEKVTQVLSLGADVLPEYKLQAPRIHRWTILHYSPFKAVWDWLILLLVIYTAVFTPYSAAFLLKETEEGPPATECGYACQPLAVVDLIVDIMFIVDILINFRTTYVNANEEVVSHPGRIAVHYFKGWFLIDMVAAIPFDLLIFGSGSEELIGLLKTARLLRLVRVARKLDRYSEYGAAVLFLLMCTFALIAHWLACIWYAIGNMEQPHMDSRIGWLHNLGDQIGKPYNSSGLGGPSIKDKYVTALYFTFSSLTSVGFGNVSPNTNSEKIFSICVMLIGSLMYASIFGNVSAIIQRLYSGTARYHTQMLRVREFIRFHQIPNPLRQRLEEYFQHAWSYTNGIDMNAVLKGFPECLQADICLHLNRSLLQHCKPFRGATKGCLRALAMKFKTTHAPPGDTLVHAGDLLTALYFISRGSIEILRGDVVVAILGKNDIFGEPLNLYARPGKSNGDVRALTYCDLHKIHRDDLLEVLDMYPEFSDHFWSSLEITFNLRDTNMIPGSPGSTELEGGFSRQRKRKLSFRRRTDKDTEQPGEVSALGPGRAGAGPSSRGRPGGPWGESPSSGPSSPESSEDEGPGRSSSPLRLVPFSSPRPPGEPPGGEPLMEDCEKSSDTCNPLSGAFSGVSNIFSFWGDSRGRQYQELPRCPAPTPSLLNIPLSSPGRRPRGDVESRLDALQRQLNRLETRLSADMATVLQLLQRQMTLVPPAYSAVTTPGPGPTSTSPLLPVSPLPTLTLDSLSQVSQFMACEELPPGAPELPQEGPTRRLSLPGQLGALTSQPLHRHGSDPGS
# [7] = Oral pharmacokinetics in mice; assay type: in vivo
# Protocol: (§1) The pharmacokinetic evaluations in mice were adjuncts to the primary pharmacodynamic xenograft studies. The evaluations in rats included toxicokinetic assessments in single-dose, 7-day, and 28-day toxicology studies as well as a mass-balance study after a single oral dose of ^14C-Compound #10. The evaluations in dogs included toxicokinetic assessments in 7-day and 28-day toxicology studies. In the studies performed, rodents were dosed once daily with Compound #10 formulated in vehicle and administered via oral gavage.
# [8] = Oral toxicokinetics in dogs; assay type: in vivo, beagle dogs
# Protocol: as §1
# [9] = 7-day oral toxicity study in rats; assay type: in vivo
# Protocol: A battery of genotoxicity studies was also performed. […] The L23 vehicle was used.
# Maximal exposures occurred at a dose of 120 mg/kg/day.
# [10] = test system: VEGF-A; assay: Patients: serum and plasma VEGF-A levels; assay type: in vivo, human
# Protocol: Subjects with NF2 may receive continuous daily treatment with a Compound administered at 100 mg per dose, 2 times a day (BID) for up to 1 year, or longer as appropriate, or until tumor progression. […] Tumor shrinkage or an improvement in hearing are indicators of efficacy.
# Anti-angiogenic activity: Assessing VEGF concentrations provides a relevant and convenient mechanism-specific marker of Compound activity. […] For example, clinically validated ELISA kits (e.g., from R&D Systems, Minneapolis, Minn.) may be used to measure concentrations of VEGF, VEGF-C, P1GF, VEGFR, and inflammatory mediators such as IL-6 and IL-8. CT scan and MRI scan may also be used to assess peritumoral inflammation or edema.
# Blood for VEGF, VEGFR, and Cytokines. Two blood samples (1 for plasma and 1 for serum) may be obtained for assessment of VEGF, VEGFR, and cytokine levels.
# Each sample for plasma collection may comprise 3 mL of venous blood drawn into a […]® tube with K2EDTA as the anticoagulant. Immediately after collection, the tube may be gently inverted 8 to 10 times to mix the anticoagulant with the blood sample. The tube may be stored upright at room temperature until centrifugation; centrifugation and sample processing may be performed within 30 minutes of sample collection. […]
smiles,measurement,setting,value
COc1ccc(C2c3[nH]c4ccc(Cl)cc4c3CCN2C(=O)Oc2ccc(Cl)cc2)cc1 (racemic) [Compound #10],Toxicity (ATP viability),[1],No toxicity was observed
same,Total volume of tumor vessels and diameters of vessels,[2],visibly reduced
same,Tumor vessel count,[2],unchanged
same,Growth of orthotopic SKNEP tumors (tumor weight),[3],completely prevented growth
same,Time after washout by which cells had resumed normal cycling,[4],≤ 26 h
same,Number of anchorage-independent colonies formed,[5],modest trend toward a reduced number of colonies
same,Inhibition of hERG current,[6],negative for meaningful inhibition
same,Oral bioavailability,[7],orally bioavailable
same,concentration at 24 h,"[7]; mouse, plasma, oral, 1-mg/kg dose level, Day 1, read-out: Plasma trough concentration at 24 hours",100 to 150 ng/mL
same,Oral bioavailability,[8],orally bioavailable
same,Dose of maximal exposures,"[9]; Sprague Dawley, rat, in vivo, po, 7 days",120 mg/kg/day
same,NOAEL for 7-days,[9]; female rats,120 mg/kg/day
same,NOAEL for 7-days,[9]; male rats,40 mg/kg/day
same,Mean prothrombin time (PT) and activated partial thromboplastin time (aPTT),"[9]; rat, in vivo, 120 mg/kg/day",increases
same,Plasma VEGF-A levels in patients (FIG. 35),[10],reduced
same,Serum VEGF-A levels in patients (FIG. 34),[10],reduced
